Test results from patent US20080234362A1, “Treatment for Asthma and Arthritis and Other Inflammatory Diseases” (BIONOVATE LIMITED, priority 2004, published 2008).
Entries after “also recorded” stand apart in the source; their conditions may differ. Where two headings read alike, the source gives them in different places.

Key:
[1] = system: Recurrent airway obstruction (RAO); assay: double-blind placebo controlled clinical trial on recurrent airway obstruction in horses; type: in vivo; settings: horses with RAO
Text: A Double-Blind Placebo Controlled Clinical Trial comparing the Efficacy of the Green Lipped Mussel Lipid Extract and Flavonoid alone and in Combination on Recurrent Airway Obstruction in Horses.
Recurrent airway obstruction (RAO), an equine asthma, is a chronic inflammatory disease of the airways typified by bronchoconstriction, wheezing and increased mucous production and caused by allergy to fungal and other dusts but mediated, in part, by leukotrienes and other lipid mediators. […] Studies included clinical status, exercise recovery, breath condensate, broncho-alveolar lavage, cytology and mucous scorings.
Eight horses aged 9-21 with RAO symptoms and cytology consistent with the accepted definition of RAO were recruited.
The study was a double blind randomized, placebo controlled trial. […]
Subjects were clinically and endoscopically examined and BAL and condensate collected and frozen in liquid nitrogen every two weeks. […] The BAL cytology was scored by neutrophil count. Mucous was scored by location, type, volume and viscosity. […]
The clinical assessments scores were assessed as a mean clinical RAO score. The clinical assessments were evaluated on a scale of 1-10 where 1 was severe disease symptomology and 10 indicated a disease-free condition score and the results are shown in Table 1 and FIG. 3. […]

[2] = system: mast cells; settings: cited from earlier work; for ranking of activity in the anti-allergy model: mast cell degranulation; for IC50: read-out: IC50 (μM) degranulation of mast cells
[3] = system: TNFα; settings: cited from earlier work
[4] = system: TPA-induced ear oedema; settings: cited from earlier work
[5] = system: histamine, TNFα and IL-1B induced by IgE; settings: mouse and rat model; cited from earlier work
[6] = system: antigen-induced bronchoconstriction and airway hyper-reactivity; settings: oral, before and after sensitisation; ovalbumin; cited from earlier work
[7] = system: LTB4 production; settings: 9 g/day; cited from earlier work
[8] = in vitro; cited from earlier work

For `O=c1cc(-c2ccc(O)c(O)c2)oc2cc(O)cc(O)c12` [Luteolin], the “Mean clinical RAO score” value ([1]; 4 capsules per day, 28 days, scale 1-10, 1 severe, 10 disease-free) is given as 3.38^ade, the “improvement of respiratory function” value ([1]; versus placebo) is given as “significantly (P<0.001) improved” and the “ranking of activity in the anti-allergy model” value (“ranking of activity” for short) [2] is given as “most potent”. For the same compound, the “ranking of activity” value ([2]; listed as luteolin) was “most active”, the IC50 [2] was 1.8 µM and the “oral in vivo anti-TNFα activity” value [3] was “potent; also recorded: more potent than apigenin; also recorded: inhibited”. The “oral anti-inflammatory activity, TPA ear oedema” value [4] was “effective”, the “potency on IgE-induced histamine, TNFα and IL-1B production versus other agents” value [5] was “more potent than many other agents” and the “antigen-induced bronchoconstriction and airway hyper-reactivity” value [6] was “significantly reduced”.
In the case of `COc1ccc(-c2cc(=O)c3c(O)cc(O)cc3o2)cc1O` [Diosmetin], the “ranking of activity” value [2] is given as “most active”.
In the case of `O=c1cc(-c2ccccc2)oc2cc(O)c(O)c(O)c12` [Baicalein], the IC50 [2] is listed as 17 µM and the “potency on IgE-induced histamine, TNFα and IL-1B production versus other agents” value [5] is listed as “more potent than many other agents”.
In the case of `O=c1cc(-c2ccccc2)oc2cc(O)ccc12` [7-hydroxyflavone], the IC50 [2] is listed as 21 µM.
In the case of `CC/C=C\C/C=C\C/C=C\CCCCCCCC(=O)O` [a-LNA, a-linolenic acid], the “LTB4 production and pulmonary function” value [7] is given as “inhibit LTB4 production and improve pulmonary function”.
For `O=c1c(O)c(-c2ccc(O)cc2O)oc2cc(O)cc(O)c12` [Morin], the IC50 [2] is listed as 51 µM.
In the case of `O=c1c(O)c(-c2ccccc2)oc2ccc(O)cc12` [3,6-dihydroxyflavone], the IC50 [2] is listed as 6 µM.
For `O=c1c(O)c(-c2cc(O)c(O)c(O)c2)oc2cc(O)cc(O)c12` [Myricetin], the IC50 [2] is listed as 6.7 µM and the “antioxidant efficiency versus traditional vitamins” value [8] is listed as “more efficient antioxidants than traditional vitamins”.
For `O=c1c(O)c(-c2ccc(O)c(O)c2)oc2cc(O)cc(O)c12` [Quercetin], the “ranking of activity” value [2] is listed as “most active”, the IC50 [2] is listed as 3 µM and the “oral anti-inflammatory activity, TPA ear oedema” value [4] is listed as “effective”. For the same compound, the “potency on IgE-induced histamine, TNFα and IL-1B production versus other agents” value [5] was “more potent than many other agents” and the “antioxidant efficiency versus traditional vitamins” value [8] was “more efficient antioxidants than traditional vitamins”.
In the case of `O=c1c(O)c(-c2ccccc2)oc2ccccc12` [3-hydroxyflavone], the IC50 [2] is listed as > 100 µM.
For `O=c1cc(-c2ccc(O)cc2)oc2cc(O)cc(O)c12` [Apigenin], the “ranking of activity” value [2] is given as “most active”, the IC50 [2] is given as 4.5 µM and the “oral in vivo anti-TNFα activity” value [3] is given as “potent”.
In the case of `O=c1c(O)c(-c2ccc(O)cc2)oc2cc(O)cc(O)c12` [Kaempferol], the IC50 [2] is given as 7.5 µM.
For `O=c1cc(-c2ccccc2)oc2ccccc12` [Flavone], the IC50 [2] is given as > 100 µM.
In the case of `O=c1cc(-c2ccccc2)oc2cc(O)cc(O)c12` [Chrysin], the IC50 [2] is listed as > 100 µM.
For `O=c1cc(-c2ccccc2)oc2ccc(O)cc12` [6-hydroxyflavone], the IC50 [2] is listed as 28 µM.
For `O=c1c(O)c(-c2ccccc2)oc2cc(O)cc(O)c12` [Galangin], the IC50 [2] is given as 40 µM.
For `O=c1c(O)c(-c2ccc(O)c(O)c2)oc2cc(O)ccc12` [Fisetin], the “ranking of activity” value [2] is listed as “most active” and the IC50 [2] is listed as 3.3 µM.
For `COc1ccc(-c2cc(=O)c3c(O)cc(O[C@@H]4O[C@H](CO[C@@H]5O[C@@H](C)[C@H](O)[C@@H](O)[C@H]5O)[C@@H](O)[C@H](O)[C@H]4O)cc3o2)cc1O` [Diosmin], the IC50 [2] is given as > 100 µM.
